Experiments:
Experiment in all cases: Single nucleotide extension assay, steady-state kinetics (Table 2)
[1] = biological target: T1, E. coli PolA polymerase (Klenow fragment of E. coli DNA pol I, SEQ ID NO: 234), His-tagged, 3′-exonuclease-disabled mutant D101A (Escherichia coli, UniProt P00582, D424A); type: biochemical; conditions: for Efficiency: catalytic efficiency, average and standard deviation of three independent assays
T1 construct: 3'-exonuclease-disabled
Source text: (§1) DpoZ genes from each bacteriophage were also cloned in the P15A plasmid pVDM18 previously described (Pezo et al., Sci Rep. 3, 1359 (2013)). Exonuclease mutants were constructed by site directed mutagenesis of pVDM18 Pol constructs using X1379/X1380 oligonucleotides for Vibrio phage PhiVC8 DNA pol (D85A mutation), X1865/X1866 for Arthrobacter phage Wayne DNA pol (D146A mutation), X1990/X1991 for Acinetobacter phage SH-Ab-15497 (D74A mutation), X1867/X1868 for Gordonia phage Ghobes DNA pol (D109A mutation) and X1601/X1602 for Klenow fragment of E. coli DNA pol I (D101A mutation). Mutations were verified by full sequencing of the constructs. These mutants were also sub-cloned into the pGEN452 vector downstream a His6-tag for protein expression
(§2) Kinetic parameters were determined in a single nucleotide extension assay using DNA polymerase mutants devoid of 3′exonuclease activity, followed by denaturing polyacrylamide gel electrophoresis of the extended products essentially as described (O'Flaherty and Guengerich, Current Protocols in Nucleic Acid Chemistry. 59 (2014)). The fluorescent oligonucleotide X1648 was annealed to X1649 template. Duplex substrates were used at 500 nM concentration in reaction buffer (20 mM TrisHCl pH7, 200 mM NaCl, 2 mM DTT, 5 mM MgCl2), with different enzymes concentrations and various dNTPs concentrations. Reactions were performed at 37° C. for variable times in conditions to remain in the confines of the steady-state kinetic model e.g. remaining below 20% of product formation (Creighton et al., Methods in Enzymology (Elsevier, 1995; https://linkinghub.elsevier.com/retrieve/pii/0076687995620214), vol. 262, pp. 232-256).
(§3) • The Km affinity constant and the kcat turnover number of 3′-exonuclease-disabled and His-tagged versions of DpoZ polymerases from Vibrio phage PhiVC8 and Acinetobacter phage SH-Ab 15497 are shown in comparison with PolA polymerase (Klenow fragment) from E. coli. The average and standard deviation of three independent assays carried out under the same conditions are given for each experiment.

[2] = biological target: T2, Acinetobacter phage SH-Ab 15497 DpoZ DNA polymerase (SEQ ID NO: 113), His-tagged, 3′-exonuclease-disabled mutant D74A (Acinetobacter phage SH-Ab 15497, UniProt A0A2H5BHJ5, D74A); type: biochemical; conditions: for Efficiency: catalytic efficiency, average and standard deviation of three independent assays
T2 construct: 3'-exonuclease-disabled D74A
T2 sequence (A0A2H5BHJ5 1-624 D74A): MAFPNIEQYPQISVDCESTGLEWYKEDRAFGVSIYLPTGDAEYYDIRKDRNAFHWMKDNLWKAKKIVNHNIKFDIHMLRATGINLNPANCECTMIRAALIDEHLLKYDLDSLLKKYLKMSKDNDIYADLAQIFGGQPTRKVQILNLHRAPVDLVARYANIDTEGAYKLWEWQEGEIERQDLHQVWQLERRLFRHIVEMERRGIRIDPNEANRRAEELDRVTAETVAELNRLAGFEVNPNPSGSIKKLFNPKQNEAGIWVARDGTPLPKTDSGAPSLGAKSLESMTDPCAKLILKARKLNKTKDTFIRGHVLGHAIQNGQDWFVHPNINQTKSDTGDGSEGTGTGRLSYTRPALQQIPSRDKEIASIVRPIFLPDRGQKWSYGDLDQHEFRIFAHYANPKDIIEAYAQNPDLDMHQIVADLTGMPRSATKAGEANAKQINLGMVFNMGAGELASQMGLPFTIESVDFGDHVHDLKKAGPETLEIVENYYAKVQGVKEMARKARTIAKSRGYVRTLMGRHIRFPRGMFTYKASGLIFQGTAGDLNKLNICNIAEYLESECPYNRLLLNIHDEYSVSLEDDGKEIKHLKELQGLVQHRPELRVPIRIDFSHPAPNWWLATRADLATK
Source text: as §1, §2, §3

[3] = biological target: T3, Vibrio phage PhiVC8 DpoZ DNA polymerase (SEQ ID NO: 112), His-tagged, 3′-exonuclease-disabled mutant D85A (Vibrio phage phiVC8, UniProt G3FFN8, D85A); type: biochemical; conditions: for Efficiency: catalytic efficiency, average and standard deviation of three independent assays
T3 construct: 3'-exonuclease-disabled D85A
T3 sequence (G3FFN8 1-633 D85A): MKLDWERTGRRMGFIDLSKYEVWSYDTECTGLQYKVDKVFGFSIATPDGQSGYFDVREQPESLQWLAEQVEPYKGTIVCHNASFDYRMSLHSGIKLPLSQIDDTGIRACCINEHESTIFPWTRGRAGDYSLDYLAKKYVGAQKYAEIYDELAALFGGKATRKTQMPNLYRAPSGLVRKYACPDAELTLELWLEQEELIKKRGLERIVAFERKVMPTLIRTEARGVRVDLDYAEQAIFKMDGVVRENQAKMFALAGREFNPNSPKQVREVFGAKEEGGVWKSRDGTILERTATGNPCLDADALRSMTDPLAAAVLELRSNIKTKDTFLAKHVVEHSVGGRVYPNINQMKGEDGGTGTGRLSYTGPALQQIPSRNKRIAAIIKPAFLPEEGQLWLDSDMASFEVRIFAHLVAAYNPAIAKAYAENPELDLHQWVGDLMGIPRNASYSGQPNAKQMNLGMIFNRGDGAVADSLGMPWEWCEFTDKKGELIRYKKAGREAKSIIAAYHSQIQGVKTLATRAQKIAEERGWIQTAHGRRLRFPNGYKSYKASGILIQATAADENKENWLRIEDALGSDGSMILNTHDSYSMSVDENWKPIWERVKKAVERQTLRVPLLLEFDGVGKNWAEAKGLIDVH
Source text: as §1, §2, §3

[4] = system: T4, Nc1nc(N)c2ncn([C@H]3C[C@H](O)[C@@H](COP(=O)(O)OP(=O)(O)OP(=O)(O)O)O3)c2n1; type: biochemical, Vibrio phage PhiVC8; conditions: other: 37° C., pH7, 500 nM duplex X1648/X1649, average and standard deviation of three independent assays, pH 7.0
T4 construct: 3'-exonuclease-disabled D85A
Source text: as §1, §2, §3

[5] = system: T5, Nc1ncnc2c1ncn2[C@H]1C[C@H](O)[C@@H](COP(=O)(O)OP(=O)(O)OP(=O)(O)O)O1; type: biochemical, Vibrio phage PhiVC8; conditions: other: 37° C., pH7, 500 nM duplex X1648/X1649, average and standard deviation of three independent assays, pH 7.0
T5 construct: 3'-exonuclease-disabled D85A
Source text: as §1, §2, §3

[6] = system: T6, Nc1nc(N)c2ncn([C@H]3C[C@H](O)[C@@H](COP(=O)(O)OP(=O)(O)OP(=O)(O)O)O3)c2n1; type: biochemical, Acinetobacter phage SH-Ab 15497; conditions: other: 37° C., pH7, 500 nM duplex X1648/X1649, average and standard deviation of three independent assays, pH 7.0
T6 construct: 3'-exonuclease-disabled D74A
Source text: as §1, §2, §3

[7] = system: T7, Nc1ncnc2c1ncn2[C@H]1C[C@H](O)[C@@H](COP(=O)(O)OP(=O)(O)OP(=O)(O)O)O1; type: biochemical, Acinetobacter phage SH-Ab 15497; conditions: other: 37° C., pH7, 500 nM duplex X1648/X1649, average and standard deviation of three independent assays, pH 7.0
T7 construct: 3'-exonuclease-disabled D74A
Source text: as §1, §2, §3

T1 sequence (P00582 with tags, fused parts or gaps D424A): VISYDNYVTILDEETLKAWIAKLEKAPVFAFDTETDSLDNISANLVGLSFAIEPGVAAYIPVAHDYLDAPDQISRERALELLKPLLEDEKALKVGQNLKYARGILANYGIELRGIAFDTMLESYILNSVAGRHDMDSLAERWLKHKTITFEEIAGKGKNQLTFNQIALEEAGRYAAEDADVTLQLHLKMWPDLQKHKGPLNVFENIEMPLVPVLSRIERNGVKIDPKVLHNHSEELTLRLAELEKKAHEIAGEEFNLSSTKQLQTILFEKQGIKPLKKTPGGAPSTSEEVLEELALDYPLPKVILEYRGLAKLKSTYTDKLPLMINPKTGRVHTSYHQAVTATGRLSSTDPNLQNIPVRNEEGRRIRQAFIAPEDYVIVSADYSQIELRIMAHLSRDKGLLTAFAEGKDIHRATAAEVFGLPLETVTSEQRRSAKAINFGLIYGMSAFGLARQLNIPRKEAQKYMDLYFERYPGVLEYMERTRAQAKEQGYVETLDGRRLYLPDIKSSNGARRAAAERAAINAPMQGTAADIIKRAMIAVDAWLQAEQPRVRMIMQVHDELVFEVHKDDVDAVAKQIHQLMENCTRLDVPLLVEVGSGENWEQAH

Nc1ncnc2c1ncn2[C@H]1C[C@H](O)[C@@H](COP(=O)(O)OP(=O)(O)OP(=O)(O)O)O1 [dATP, deoxyadenosine 5′-triphosphate]
Efficiency [1]: 30.40 ± 5.82 mM⁻¹ s⁻¹
Efficiency [2]: 0.008 ± 0.001 mM⁻¹ s⁻¹
Efficiency [3]: 0.048 ± 0.017 mM⁻¹ s⁻¹

Nc1nc(N)c2ncn([C@H]3C[C@H](O)[C@@H](COP(=O)(O)OP(=O)(O)OP(=O)(O)O)O3)c2n1 [dZTP, 2-amino-2′-deoxyadenosine 5′-triphosphate]
factor in catalytic efficiency with dZTP relative to dATP [1]: 0.5 -fold
Efficiency [1]: 17.73 ± 4.96 mM⁻¹ s⁻¹
kcat^(Z)/kcat^(A) ([1]; kcat dZTP / kcat dATP): 0.68
factor in catalytic efficiency with dZTP relative to dATP [2]: 29 -fold
Efficiency [2]: 0.23 ± 0.06 mM⁻¹ s⁻¹
kcat^(Z)/kcat^(A) ([2]; kcat dZTP / kcat dATP): 1.81
factor in catalytic efficiency with dZTP relative to dATP [3]: 90 -fold
Efficiency [3]: 4.35 ± 1.56 mM⁻¹ s⁻¹
kcat^(Z)/kcat^(A) ([3]; kcat dZTP / kcat dATP): 2.00

Vibrio phage PhiVC8 DpoZ DNA polymerase (SEQ ID NO: 112), His-tagged, 3′-exonuclease-disabled mutant D85A (Vibrio phage phiVC8; D85A)
Km [4]: 100 ± 20 µM
kcat [4]: 0.42 ± 0.14 s⁻¹
Km [5]: 4500 ± 1380 µM
kcat [5]: 0.21 ± 0.05 s⁻¹

Acinetobacter phage SH-Ab 15497 DpoZ DNA polymerase (SEQ ID NO: 113), His-tagged, 3′-exonuclease-disabled mutant D74A (Acinetobacter phage SH-Ab 15497; D74A)
Km [6]: 1300 ± 360 µM
kcat [6]: 0.29 ± 0.07 s⁻¹
Km [7]: 21400 ± 3400 µM
kcat [7]: 0.16 ± 0.01 s⁻¹
